# Test: Inhibition of Mycobacterium tuberculosis glutamine synthetase expressed in Escherichia coli GJ4745 after 1 hr by colorimetry
row,Structure (SMILES),IC50
1,Cn1c(N2CCOCC2)nc2c1c(=O)n(Cc1ccc(Cl)c(Cl)c1)c(=O)n2C,2.5 µM
2,CC(C)Nc1c(-c2ccc(F)c(F)c2F)nc2ccc(Br)cn12,> 25 µM
3,Oc1ccc(-c2nc3ccc(Br)cn3c2NC2CCCCC2)c(Cl)c1,> 25 µM
4,CS(=O)(=O)c1cc(Cl)ccc1-c1nc2ccc(Br)cn2c1NC1CCCC1,> 25 µM
5,COc1ccc(Nc2c(-c3ccc(OCc4ccccc4)c(OCc4ccccc4)c3)nc3ccc(Br)cn23)cc1,> 25 µM
6,Fc1cc(-c2nc3ccc(Br)cn3c2NC2CCCC2)ccc1N1CCOCC1,> 25 µM
7,CCCCNc1c(-c2ccc(OCCO)cc2)nc2ccc(Br)cn12,3 µM
8,CN(C)c1ccc(-c2nc3ccc(Br)cn3c2NC2CCCC2)cc1,> 25 µM
9,COc1cccc(-c2nc3ccc(Br)cn3c2NCCN2CCOCC2)c1OC,> 25 µM
10,COc1cccc(-c2nc3ccc(Br)cn3c2NC2CCCC2)c1OCc1ccccc1,> 25 µM
11,CC(C)(C)Nc1c(-c2ccccc2O)nc2ccc(Br)cn12,> 25 µM
12,Brc1ccc2nc(-c3ccccc3-c3ccccc3)c(NC3CCCC3)n2c1,> 25 µM
13,CC(C)Nc1c(-c2cccc(N3CCOCC3)c2)nc2ccc(Br)cn12,> 25 µM
14,Brc1ccc2nc(-c3ccccc3)c(NCCc3ccccc3)n2c1,> 25 µM
15,CC(C)Nc1c(-c2ccc(OCCO)cc2)nc2ccc(Br)cn12,> 25 µM
16,OCCOc1ccc(-c2nc3ccc(Br)cn3c2Nc2ccc(F)cc2)cc1,> 25 µM

row,Structure (SMILES),IC50
1,OCCOc1ccc(-c2nc3ccc(Br)cn3c2NC2CCCC2)cc1,> 25 µM
2,CCCNc1c(-c2ccc(OCCO)cc2)nc2ccc(Br)cn12,3.9 µM
3,CCCCCNc1c(-c2ccc(OCCO)cc2)nc2ccc(Br)cn12,4.9 µM
4,CCCCNc1c(-c2ccc(N(C)CCO)cc2)nc2ccc(Br)cn12,8.3 µM
5,CCCCNc1c(-c2ccc(OCC(=O)O)cc2)nc2ccc(Br)cn12,1.6 µM
6,CCCCNc1c(-c2ccc(N(CCO)CCO)cc2)nc2ccc(Br)cn12,22 µM
7,CCCCNc1c(-c2ccc(OCCC)cc2)nc2ccc(Br)cn12,15 µM
8,CCCCNc1c(-c2ccc(OCC(N)=O)cc2)nc2ccc(Br)cn12,6.3 µM
9,CCCCNc1c(-c2ccc(OCCN(C)C)cc2)nc2ccc(Br)cn12,5.8 µM
10,CCCCNc1c(-c2ccc(OCC#N)cc2)nc2ccc(Br)cn12,10 µM
11,CCCCNc1c(-c2cccc(OCCO)c2)nc2ccc(Br)cn12,2.2 µM
12,CCCCNc1c(-c2ccc(OC)c(O)c2)nc2ccc(Br)cn12,1.9 µM
13,CCCCNc1c(-c2cccc(O)c2)nc2ccc(Br)cn12,1.4 µM
14,CCCCNc1c(-c2cccc(C(=O)O)c2)nc2ccc(Br)cn12,0.6 µM
15,CCCCNc1c(-c2ccc(O)c(OC)c2)nc2ccc(Br)cn12,1.5 µM
